Results: article PMC4762448 (Journal of biomolecular screening, 2011)
Where two headings read alike, the source gives them in different places.

What was measured:
[1] = biological target: Ls-AChBP (Lymnaea stagnalis, UniProt P58154); settings: cited from earlier work
[2] = 125I-Bgt displacement assay; cited from earlier work
[3] = biological target: T1, Ac-AChBP (Aplysia californica, UniProt Q8WSF8); test: [3H] epibatidine competition scintillation proximity assay, Ac-AChBP; assay type: binding
T1 sequence (Q8WSF8 18-236 limits assumed): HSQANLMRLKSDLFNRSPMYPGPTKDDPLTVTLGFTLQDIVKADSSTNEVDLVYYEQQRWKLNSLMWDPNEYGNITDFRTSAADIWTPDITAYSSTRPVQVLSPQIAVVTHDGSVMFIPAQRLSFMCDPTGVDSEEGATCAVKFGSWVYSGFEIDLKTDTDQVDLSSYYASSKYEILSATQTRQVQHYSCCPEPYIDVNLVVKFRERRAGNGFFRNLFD

[4] = biological target: AcY55W-AChBP (Aplysia californica, UniProt Q8WSF8, Y72W); test: [3H] epibatidine competition scintillation proximity assay, AcY55W-AChBP; assay type: binding
[5] = biological target: T2, α7nAChR (Homo sapiens, UniProt P36544); test: LGIC-CNiFER FRET calcium sensor assay in HEK cells, α7nAChR; assay type: cell-based
[6] = tested on: AChBPs (Ls, Ac, and AcY55W); test: [3H] epibatidine competition SPA, the three AChBPs together; assay type: binding; settings: 10 μM of each compound
[7] = biological target: T2, α7nAChR; assay type: cell-based
[8] = biological target: T3, 5-HT3A (Homo sapiens, UniProt P46098); test: LGIC-CNiFER FRET calcium sensor assay in HEK cells, 5-HT3A; assay type: cell-based; settings: control at 0.1 μM
T3 sequence (P46098 24-478): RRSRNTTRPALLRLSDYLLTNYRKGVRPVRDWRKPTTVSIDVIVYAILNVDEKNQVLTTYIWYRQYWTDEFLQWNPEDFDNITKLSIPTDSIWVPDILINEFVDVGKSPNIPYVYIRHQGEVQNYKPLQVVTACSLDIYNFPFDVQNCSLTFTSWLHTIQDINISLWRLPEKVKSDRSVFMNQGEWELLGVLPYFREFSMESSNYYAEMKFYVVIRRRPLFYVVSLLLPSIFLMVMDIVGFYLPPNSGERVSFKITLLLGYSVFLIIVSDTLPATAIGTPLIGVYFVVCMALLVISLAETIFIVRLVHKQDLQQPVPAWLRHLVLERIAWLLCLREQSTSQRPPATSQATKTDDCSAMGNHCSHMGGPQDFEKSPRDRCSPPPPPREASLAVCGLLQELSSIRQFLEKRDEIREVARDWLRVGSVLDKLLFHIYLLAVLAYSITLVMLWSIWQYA

[9] = biological target: α1nAChR (Homo sapiens, UniProt P02708+Q07001); test: LGIC-CNiFER membrane potential dye assay in HEK cells, α1nAChR; assay type: cell-based; settings: 0.1 µM
Chain of α1nAChR (P02708 21-457): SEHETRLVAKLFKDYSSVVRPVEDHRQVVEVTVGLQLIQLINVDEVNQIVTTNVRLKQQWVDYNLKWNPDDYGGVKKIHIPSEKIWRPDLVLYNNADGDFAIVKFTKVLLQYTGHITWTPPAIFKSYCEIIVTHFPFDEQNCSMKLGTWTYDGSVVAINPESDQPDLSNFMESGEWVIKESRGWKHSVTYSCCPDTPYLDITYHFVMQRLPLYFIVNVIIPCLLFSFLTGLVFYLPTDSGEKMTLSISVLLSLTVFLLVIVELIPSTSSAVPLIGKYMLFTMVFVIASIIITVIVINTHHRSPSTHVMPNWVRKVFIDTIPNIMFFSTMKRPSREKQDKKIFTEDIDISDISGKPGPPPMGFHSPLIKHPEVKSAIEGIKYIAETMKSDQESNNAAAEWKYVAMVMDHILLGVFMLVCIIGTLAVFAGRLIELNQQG
Chain of α1nAChR (P11230 24-501 partner): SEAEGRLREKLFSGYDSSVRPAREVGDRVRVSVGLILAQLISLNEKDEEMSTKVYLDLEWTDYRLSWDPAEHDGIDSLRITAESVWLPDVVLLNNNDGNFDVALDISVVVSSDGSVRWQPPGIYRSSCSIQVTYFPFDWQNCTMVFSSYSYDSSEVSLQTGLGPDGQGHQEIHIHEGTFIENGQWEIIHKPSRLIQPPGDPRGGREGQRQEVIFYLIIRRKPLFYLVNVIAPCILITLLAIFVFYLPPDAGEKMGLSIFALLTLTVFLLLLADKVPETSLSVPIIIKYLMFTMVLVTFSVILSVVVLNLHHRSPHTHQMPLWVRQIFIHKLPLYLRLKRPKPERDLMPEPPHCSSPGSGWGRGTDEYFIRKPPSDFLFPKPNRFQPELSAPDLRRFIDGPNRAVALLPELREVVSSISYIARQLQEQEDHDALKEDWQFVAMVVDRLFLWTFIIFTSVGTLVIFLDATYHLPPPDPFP
Chain of α1nAChR (Q07001 22-517): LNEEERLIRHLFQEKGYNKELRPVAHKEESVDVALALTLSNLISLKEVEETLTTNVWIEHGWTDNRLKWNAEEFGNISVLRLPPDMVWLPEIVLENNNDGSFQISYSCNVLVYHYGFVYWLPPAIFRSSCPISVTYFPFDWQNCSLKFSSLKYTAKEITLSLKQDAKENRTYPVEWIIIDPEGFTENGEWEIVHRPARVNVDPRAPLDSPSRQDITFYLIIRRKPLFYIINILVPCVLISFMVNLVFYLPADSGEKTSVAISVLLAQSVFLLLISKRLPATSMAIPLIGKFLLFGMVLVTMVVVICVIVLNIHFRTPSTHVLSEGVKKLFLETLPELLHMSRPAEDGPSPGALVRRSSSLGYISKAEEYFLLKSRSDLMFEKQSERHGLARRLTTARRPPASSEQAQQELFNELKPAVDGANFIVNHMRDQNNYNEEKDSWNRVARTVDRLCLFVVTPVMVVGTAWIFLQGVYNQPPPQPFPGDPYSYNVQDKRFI

T2 sequence (P36544 23-502): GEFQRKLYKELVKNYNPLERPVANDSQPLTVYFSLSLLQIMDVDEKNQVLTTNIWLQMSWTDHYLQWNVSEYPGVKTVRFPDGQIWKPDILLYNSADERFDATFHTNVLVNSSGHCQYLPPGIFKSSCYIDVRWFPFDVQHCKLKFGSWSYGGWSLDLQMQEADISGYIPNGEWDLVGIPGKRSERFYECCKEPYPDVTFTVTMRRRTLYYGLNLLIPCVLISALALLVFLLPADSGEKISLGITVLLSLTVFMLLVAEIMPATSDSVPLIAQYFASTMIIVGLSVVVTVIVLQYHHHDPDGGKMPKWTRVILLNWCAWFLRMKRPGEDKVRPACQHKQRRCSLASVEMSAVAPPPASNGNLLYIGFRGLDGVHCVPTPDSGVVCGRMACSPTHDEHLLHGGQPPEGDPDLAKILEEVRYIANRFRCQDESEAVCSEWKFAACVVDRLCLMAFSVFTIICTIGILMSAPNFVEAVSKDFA
Chain of Ls-AChBP (P58154 20-229 limits assumed): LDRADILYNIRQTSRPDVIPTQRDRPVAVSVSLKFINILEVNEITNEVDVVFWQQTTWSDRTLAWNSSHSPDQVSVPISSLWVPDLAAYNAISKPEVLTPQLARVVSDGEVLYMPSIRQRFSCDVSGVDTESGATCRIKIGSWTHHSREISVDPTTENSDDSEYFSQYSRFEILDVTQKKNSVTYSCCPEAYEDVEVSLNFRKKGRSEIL
Chain of AcY55W-AChBP (Q8WSF8 18-236 Y72W limits assumed): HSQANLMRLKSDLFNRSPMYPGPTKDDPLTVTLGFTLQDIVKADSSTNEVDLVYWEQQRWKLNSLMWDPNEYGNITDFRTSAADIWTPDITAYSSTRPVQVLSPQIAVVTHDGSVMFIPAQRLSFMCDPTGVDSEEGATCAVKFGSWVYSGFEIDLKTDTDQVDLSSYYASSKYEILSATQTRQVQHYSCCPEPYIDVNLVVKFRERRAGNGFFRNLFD

Molecule: CC(=O)OCC[N+](C)(C)C [ACh, acetylcholine]
- Kd [1]: 823 nM
- pKd [2]: 5.5

Molecule: C[N+]1(C)[C@@H]2CC[C@H]1C[C@@H](OC(=O)C(CO)c1ccccc1)C2 (stereo partly drawn) [Compound 10]
- Kd [3]: 882 ± 117 nM
- Kd [4]: 2010 ± 137 nM
- selectivity of antagonism among LGIC-CNiFERs [5]: nonselective antagonists
- interference with the binding of [3H] epibatidine to BPs (screening) [6]: significant interference

Molecule: CCN1C[C@]2(COC(=O)c3ccccc3N3C(=O)C[C@H](C)C3=O)CC[C@H](OC)[C@@]34[C@@H]5C[C@H]6[C@H](OC)[C@@H]5[C@](O)(C[C@@H]6OC)[C@@](O)([C@@H](OC)[C@H]23)[C@@H]14 [MLA, methyllycaconitine]
- inhibition of current response elicited by 100 μM ACh [7]: completely inhibited
- percent inhibition, α7nAChR ([5]; 1 µM): 79 ± 6.4%

Molecule: CN1[C@@H]2CC[C@H]1C[C@@H](OC(=O)c1c[nH]c3ccccc13)C2 [Tropocitron]
- percent inhibition, 5-HT3A [8]: 96 ± 0.6%

Molecule: C[N+](C)(C)CCOC(N)=O [carbamylcholine]
- Kd ([1]; isothermal titration calorimetry using Ls-AChBP): 7580 nM

Molecule: CN1CCC[C@H]1c1cccnc1 [nicotine]
- pKd [2]: 7.2

Molecule: α-Bungarotoxin
- percent inhibition, α1nAChR [9]: 94 ± 0.8%
